According to ChEMBL document CHEMBL3763075, “Evaluation of phenylcyclopropylamine compounds by enzymatic assay of lysine-specific demethylase 2 in the presence of NPAC peptide” (Bioorg Med Chem Lett, 2016):
pIC50: −log10 of the molar value.

Biological target: T1, Lysine-specific histone demethylase 2 (Homo sapiens, UniProt Q8NB78)
T1 sequence (Q8NB78 whole entry): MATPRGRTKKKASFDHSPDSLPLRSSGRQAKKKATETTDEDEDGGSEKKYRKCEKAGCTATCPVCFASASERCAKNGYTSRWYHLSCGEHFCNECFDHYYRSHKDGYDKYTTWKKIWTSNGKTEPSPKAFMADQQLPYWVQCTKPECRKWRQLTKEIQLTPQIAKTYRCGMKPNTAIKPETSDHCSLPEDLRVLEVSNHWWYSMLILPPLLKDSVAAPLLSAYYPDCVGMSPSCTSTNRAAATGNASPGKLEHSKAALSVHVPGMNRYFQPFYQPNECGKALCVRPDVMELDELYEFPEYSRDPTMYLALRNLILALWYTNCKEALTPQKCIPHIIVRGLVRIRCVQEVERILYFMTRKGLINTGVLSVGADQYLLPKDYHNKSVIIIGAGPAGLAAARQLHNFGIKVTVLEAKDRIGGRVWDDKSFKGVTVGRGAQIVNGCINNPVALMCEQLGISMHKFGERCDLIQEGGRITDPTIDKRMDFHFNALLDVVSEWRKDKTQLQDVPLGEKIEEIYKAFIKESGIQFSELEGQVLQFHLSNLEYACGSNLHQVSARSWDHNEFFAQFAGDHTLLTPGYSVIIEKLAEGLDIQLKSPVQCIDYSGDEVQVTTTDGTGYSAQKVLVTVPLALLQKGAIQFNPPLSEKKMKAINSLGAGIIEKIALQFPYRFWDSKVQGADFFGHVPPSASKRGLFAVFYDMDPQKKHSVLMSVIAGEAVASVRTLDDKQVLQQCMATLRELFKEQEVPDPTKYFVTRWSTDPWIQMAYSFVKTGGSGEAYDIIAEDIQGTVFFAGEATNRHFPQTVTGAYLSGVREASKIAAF
Description: Inhibition of recombinant human LSD2 using H3K4 peptide as substrate assessed as decrease in H3K4 demethylation after 1 hr by mass spectroscopic analysis

SMILES: O=C(N[C@@H](CCCCNC1CC1c1ccccc1)C(=O)NCc1ccc(Cl)cc1)c1ccc(-c2ccccc2)cc1 (stereo partly drawn)
- pIC50: 3.60

SMILES: O=C(N[C@@H](CCCCNC1CC1c1ccccc1)C(=O)NCc1cccc(C(F)(F)F)c1)c1ccc(-c2ccccc2)cc1 (stereo partly drawn)
- pIC50: < 3.27

SMILES: O=C(N[C@@H](CCCCNC1CC1c1ccccc1)C(=O)NCc1ccccc1)c1ccc(-c2ccccc2)cc1 (stereo partly drawn)
- pIC50: 3.64
